Measured values as given in patent publication US9101671B2, “Methods and compositions related to clot binding compounds” (Sanford-Burnham Medical Research Institute, priority 2007, dated 2015).
Where no end group is shown, it is not given here. fluorescent dye = not defined here

Experiments:
human plasma clots = test: Nanoparticle binding to human plasma clots in vitro
Experimental: (§1) Phage binding to clotted plasma proteins was determined as described (Pilch 2006). CREKA-SPIO and control SPIO were added to freshly formed plasma clots in the presence or absence of free CREKA peptide. After 10 min incubation, the clots were washed 4 times in PBS, transferred to a new tube and digested in 100 μl concentrated nitric acid. The digested material was diluted in 2 ml distilled water and the iron concentration was determined using inductively coupled plasma-optical emission spectroscopy (ICP-OES, PerkinElmer, Norwalk, Conn.).

[1] = tested on: MDA-MB-435 human breast cancer xenografts; test: Tumor homing of intravenously injected fluorescent CREKA peptide in MDA-MB-435 xenograft mice; format: in vivo
Experimental: (§2) (A). Balb/c nude mice bearing MDA-MB-435 human breast cancer xenograft tumors or transgenic MMTV PyMT mice with breast tumors were intravenously injected with 0.1 mg of fluorescein-CREKA. The animals were sacrificed by perfusion 24 hours post-injection and tissue sections were examined by fluorescent microscopy. Right panel, control organs of MDA-MB 435 tumor mice. Magnification 200×. (B). Whole animal imaging of MDA-MB-435 tumor mouse injected 6 hours earlier with 30 μg of Alexa Fluor 647-labeled CREKA. Maestro imaging system (Cambridge Research Inc., Woburn, Mass.) was used to acquire and process the image. The arrow points to the tumor and the arrowhead to the urinary bladder.
(§3) A tumor-homing peptide was used to construct targeted nanoparticles. […] The most frequently represented peptide sequence in the selected phage preparation was CREKA (cys-arg-glu-lys-ala; SEQ ID NO:1). The CREKA peptide was synthesized with a fluorescent dye attached to the N-terminus and the in vivo distribution of the peptide was studied in tumor-bearing mice. […] The peptide formed a distinct meshwork in the tumor stroma (FIG. 5), and it also highlighted the blood vessels in the tumors.
In vivo screening of a peptide library with the general structure of CX7C (SEQ ID NO: 4), where C is cysteine and X is any amino acid, was carried out as described (Oh 2004) using 65- to 75-day-old transgenic MMTV PyMT mice (Hutchinson 2000). These mice express the polyoma virus middle T antigen (MT) under the transcriptional control of the mouse mammary tumor virus (MMTV), leading to the induction of multi-focal mammary tumors in 100% of carriers. MDA-MB-435 tumors in nude mice and peptide synthesis have been described (Laakkonen 2002; Laakkonen 2004). B16F1 murine melanoma tumors were grown in fibrinogen null mice (Suh 1995) and their normal littermates and used when they reached 0.5-1 cm in size (Pilch 2006).

PyMT tumors = test: Tumor homing of intravenously injected fluorescent CREKA peptide in MMTV-PyMT mice; format: in vivo; conditions: intravenous injection; minutes to hours after the injection; fluorescent dye at N-terminus
Experimental: as §2
as §3, with “tumors. […]” for “tumors.”

mouse plasma clots = test: Nanoparticle binding to mouse plasma clots in vitro
Experimental: as §1

B16F1 melanomas = test: CREKA peptide homing to B16F1 melanomas in fibrinogen null mice and normal littermates; format: in vivo; conditions: intravenous injection
Experimental: Fluorescein-conjugated CREKA peptide (200 μg per mouse) was injected into mice bearing syngeneic B16 melanoma tumors. Representative microscopic fields are shown to illustrate homing of fluorescein-CREKA to fibrin-like structures in tumors in wild type mice (A, arrow) and lack of homing in fibrinogen null mice (B). […] (D) Dextran-coated iron oxide nanoparticles conjugated with fluorescein-CREKA bind to clotted plasma proteins, and the binding is inhibited by free CREKA peptide. […] Magnification: A-B, 200×; D, 600×.
Tumors contain a meshwork of clotted plasma proteins in the tumor stroma and the walls of vessels, but no such meshwork is detectable in normal tissues (Dvorak 1985; Abe 1999; Pilch 2006). The mesh-like pattern produced by the CREKA peptide in tumors prompted the study of whether clotted plasma proteins can be the target of this peptide. The peptide was tested in fibrinogen knockout mice, which lack the fibrin meshwork in their tumors. […] Its structure makes it an attractive peptide to use in nanoparticle targeting because, unlike other clot-binding peptides, which are cyclic 10 amino-acid peptides (Pilch 2006), CREKA is linear and contains only 5 amino acids. Moreover, the sulfhydryl group of the single cysteine residue is not required to provide binding activity and can be used to couple the peptide to other moieties. […]

effect of free peptide on CREKA-SPIO binding to plasma clots (human plasma clots): inhibited | effect of free peptide on CREKA-SPIO binding to plasma clots (mouse plasma clots): inhibited
Substance: cys-arg-glu-lys-ala ({fluorescent dye}-CREKA; reading uncertain; also: dye not identified, printed as cys-arg-glu-lys-ala) [CREKA peptide, studied in vivo with a fluorescent dye attached to the N-terminus]
peptide detection in tumors ([1]; intravenous injection, minutes to hours after the injection, fluorescent dye at N-terminus): readily detectable | peptide detection in normal tissues ([1]; intravenous injection, tumor-bearing mice): essentially undetectable | whole body imaging, peptide accumulation ([1]; peptide labeled with Alexa 647, 6 hours after injection of 30 μg): peptide accumulation in the breast cancer xenografts, and in the bladder | peptide detection in tumors (PyMT tumors): readily detectable | peptide accumulation in tumors (B16F1 melanomas; fibrinogen null mice): failed to accumulate | peptide accumulation in tumors (B16F1 melanomas; normal littermates of the null mice): formed a brightly fluorescent meshwork
